In patent publication US20090214459A1, “METHOD OF USING CERTAIN CATIONIC POLYMERS AS ANTIOXIDANTS OR FREE-RADICAL SCAVENGERS” (priority 2008, published 2009):

Test system: HaCaT keratinocytes exposed to UVA
Assay: Antioxidant/free-radical scavenging activity with respect to UVA oxidative stress induced on keratinocytes (DCFH-DA fluorescent probe)
Type: cell-based
Details: 30 μM, 24 hours pre-incubation, UVA 2 J/cm^2, DCF fluorescence
Method: Method for Evaluating the Antioxidant/Free-Radical Scavenging Activity of the Polymers of the Invention with Respect to a UVA Oxidative Stress Induced on Keratinocytes
The technique for evaluating the photoprotection was carried out according to a well-known method (J. of Photochemistry and Photobiology B: Biology 57 (2000) 102-112 TOBI et al: Glutathione modulates the level of free radicals produced in UVA irradiated cells). This technique used a fluorescent probe, a marker for intracellular global oxidative stress, 2′-7′-dichlorofluorescin diacetate (DCFH-DA).
The use of DCFH-DA as a marker of the oxidative stress rests on its physicochemical properties. It is an apolar and non-ionic molecule capable of diffusing through cell membranes. Once inside the cell, DCFH-DA will be hydrolysed by intracellular esterases to a non-fluorescent compound: DCFH or 2,7-dichlorofluorescin. In the presence of activated oxygen species, DCFH is rapidly oxidized to a highly fluorescent compound: DCF or 2,7-dichlorofluorescein.
Three compounds were tested: hexadimethrine chloride (MEXOMERE PO from Chimex corresponding to a polycondensate of formula (I)), citric acid and glycine (0.0001% w/v for the MEXOMERE PO, 30 μM for the citric acid and the glycine). […]
The fluorescence of DCF was evaluated immediately after the exposure to UVA, by spectrofluorimetry (excitation: 480 nm; emission: 530 nm).

| SMILES | level of protection (antioxidant efficacy with respect to UVA oxidative stress) [%] |
| --- | --- |
| NCC(=O)O [glycine] | ~15 |
| O=C(O)CC(O)(CC(=O)O)C(=O)O [Citric acid, citric acid] | ~18 |
